# Assay results: ChEMBL document CHEMBL6078630, “Design, synthesis, and bioactivity investigation of novel cyclic lipopeptide antibiotics targeting top-priority multidrug-resistant gram-negative bacteria” (Eur J Med Chem, 2024)
# Bridge positions count the residues as written; N and C are the ends. Square brackets hold non-standard residues; d marks the D form. Peptide text beside a SMILES is read from it. * marks the point of attachment. Heptanoyl(6-Me) = CC(C)CCCCC(=O)*; X1 = CC[C@H](C)CCCCC(=O)*; dDap = NC[C@@H](N)C(=O)O; Dab = NCC[C@H](N)C(=O)O
# Tests used:
# [1] = Nephrotoxicity against Sprague-Dawley rat assessed as increase in BUN level at 4 mg/kg, iv administered for 7 days by fully automated biochemistry analyzer XR200PLUS; assay type: toxicity, organism-based; conditions: in vivo, 168 h, time 7 day
# [2] = Acute toxicity in iv dosed Swiss mouse assessed as maximum tolerated dose measured after 24 hrs; assay type: organism-based; conditions: in vivo
# [3] = Renal cytotoxicity against HK-2 cells incubated for 72 hrs by CCK8 assay; assay type: toxicity, cell-based; conditions: human
# [4] = Nephrotoxicity against Sprague-Dawley rat assessed as increase in CRE level at 4 mg/kg, iv administered for 7 days by fully automated biochemistry analyzer XR200PLUS; assay type: toxicity, organism-based; conditions: in vivo, 168 h, time 7 day
# [5] = Protein binding in human plasma assessed as unbound fraction at 0.2 uM incubated for 6 hrs by LC-MS/MS analysis; assay type: ADME, cell-free
# [6] = test system: Pseudomonas aeruginosa; experiment: Antibacterial activity against Pseudomonas aeruginosa ATCC 27853 assessed as inhibition of bacterial growth incubated for 16 to 20 hrs by CLSI protocol based broth microdilution method; assay type: functional; conditions: time 16-20 hrs
# [7] = test system: Escherichia coli; experiment: Antibacterial activity against carbapenem-resistant Escherichia coli clinical isolate 231112E006B assessed as inhibition of bacterial growth incubated for 24 hrs by CLSI protocol based broth microdilution method; assay type: functional
# [8] = test system: Klebsiella pneumoniae; experiment: Antibacterial activity against carbapenem-resistant Klebsiella pneumoniae clinical isolate ets78 assessed as inhibition of bacterial growth incubated for 24 hrs by CLSI protocol based broth microdilution method; assay type: functional
# [9] = test system: Pseudomonas aeruginosa; experiment: Antibacterial activity against carbapenem-resistant Pseudomonas aeruginosa clinical isolate ets22 assessed as inhibition of bacterial growth incubated for 24 hrs by CLSI protocol based broth microdilution method; assay type: functional
# [10] = test system: Pseudomonas aeruginosa; experiment: Antibacterial activity against carbapenem-resistant Pseudomonas aeruginosa clinical isolate 19-3 assessed as inhibition of bacterial growth incubated for 16 to 20 hrs by CLSI protocol based broth microdilution method; assay type: functional; conditions: time 16-20 hrs
# [11] = test system: Pseudomonas aeruginosa; experiment: Antibacterial activity against carbapenem-resistant Pseudomonas aeruginosa clinical isolate ets5 assessed as inhibition of bacterial growth incubated for 24 hrs by CLSI protocol based broth microdilution method; assay type: functional
# [12] = test system: Klebsiella pneumoniae; experiment: Antibacterial activity against carbapenem-resistant Klebsiella pneumoniae clinical isolate ets45 assessed as inhibition of bacterial growth incubated for 24 hrs by CLSI protocol based broth microdilution method; assay type: functional
# [13] = test system: Klebsiella pneumoniae; experiment: Antibacterial activity against carbapenem-resistant Klebsiella pneumoniae clinical isolate ets77 assessed as inhibition of bacterial growth incubated for 24 hrs by CLSI protocol based broth microdilution method; assay type: functional
# [14] = test system: Klebsiella pneumoniae; experiment: Antibacterial activity against carbapenem-resistant Klebsiella pneumoniae clinical isolate KPN+19-15 assessed as inhibition of bacterial growth incubated for 16 to 20 hrs by CLSI protocol based broth microdilution method; assay type: functional; conditions: time 16-20 hrs
# [15] = test system: Pseudomonas aeruginosa; experiment: Antibacterial activity against carbapenem-resistant Pseudomonas aeruginosa clinical isolate ets104 assessed as inhibition of bacterial growth incubated for 24 hrs by CLSI protocol based broth microdilution method; assay type: functional
# [16] = test system: Escherichia coli; experiment: Antibacterial activity against Escherichia coli ATCC BAA-2523 assessed as inhibition of bacterial growth incubated for 16 to 20 hrs by CLSI protocol based broth microdilution method; assay type: functional; conditions: time 16-20 hrs
# [17] = test system: Pseudomonas aeruginosa; experiment: Antibacterial activity against carbapenem-resistant Pseudomonas aeruginosa clinical isolate ets55 assessed as inhibition of bacterial growth incubated for 24 hrs by CLSI protocol based broth microdilution method; assay type: functional
# [18] = test system: Escherichia coli; experiment: Antibacterial activity against carbapenem-resistant Escherichia coli ATCC BAA-2340 assessed as inhibition of bacterial growth incubated for 16 to 20 hrs by CLSI protocol based broth microdilution method; assay type: functional; conditions: time 16-20 hrs
# [19] = test system: Pseudomonas aeruginosa; experiment: Antibacterial activity against carbapenem-resistant Pseudomonas aeruginosa clinical isolate ets6 assessed as inhibition of bacterial growth incubated for 24 hrs by CLSI protocol based broth microdilution method; assay type: functional
# [20] = test system: Pseudomonas aeruginosa; experiment: Antibacterial activity against carbapenem-resistant Pseudomonas aeruginosa clinical isolate ets83 assessed as inhibition of bacterial growth incubated for 24 hrs by CLSI protocol based broth microdilution method; assay type: functional
# [21] = test system: Pseudomonas aeruginosa; experiment: Antibacterial activity against carbapenem-resistant Pseudomonas aeruginosa clinical isolate ets15 assessed as inhibition of bacterial growth incubated for 24 hrs by CLSI protocol based broth microdilution method; assay type: functional
# [22] = test system: Klebsiella pneumoniae; experiment: Antibacterial activity against carbapenem-resistant Klebsiella pneumoniae ATCC BAA-1705 assessed as inhibition of bacterial growth incubated for 16 to 20 hrs by CLSI protocol based broth microdilution method; assay type: functional; conditions: time 16-20 hrs
# [23] = test system: Pseudomonas aeruginosa; experiment: Antibacterial activity against carbapenem-resistant Pseudomonas aeruginosa clinical isolate ets49 assessed as inhibition of bacterial growth incubated for 24 hrs by CLSI protocol based broth microdilution method; assay type: functional
# [24] = test system: Klebsiella pneumoniae; experiment: Antibacterial activity against carbapenem-resistant Klebsiella pneumoniae clinical isolate ets26 assessed as inhibition of bacterial growth incubated for 24 hrs by CLSI protocol based broth microdilution method; assay type: functional
# [25] = test system: Klebsiella pneumoniae; experiment: Antibacterial activity against carbapenem-resistant Klebsiella pneumoniae clinical isolate ets80 assessed as inhibition of bacterial growth incubated for 24 hrs by CLSI protocol based broth microdilution method; assay type: functional
# [26] = test system: Pseudomonas aeruginosa; experiment: Antibacterial activity against carbapenem-resistant Pseudomonas aeruginosa clinical isolate ets38 assessed as inhibition of bacterial growth incubated for 24 hrs by CLSI protocol based broth microdilution method; assay type: functional
# [27] = test system: Acinetobacter baumannii; experiment: Antibacterial activity against carbapenem-resistant Acinetobacter baumannii clinical isolate ets30 assessed as inhibition of bacterial growth incubated for 24 hrs by CLSI protocol based broth microdilution method; assay type: functional
# [28] = test system: Klebsiella pneumoniae; experiment: Antibacterial activity against carbapenem-resistant Klebsiella pneumoniae clinical isolate ets75 assessed as inhibition of bacterial growth incubated for 24 hrs by CLSI protocol based broth microdilution method; assay type: functional
# [29] = test system: Escherichia coli; experiment: Antibacterial activity against carbapenem-resistant Escherichia coli clinical isolate 231109W005 assessed as inhibition of bacterial growth incubated for 24 hrs by CLSI protocol based broth microdilution method; assay type: functional
# [30] = test system: Acinetobacter baumannii; experiment: Antibacterial activity against Acinetobacter baumannii NCTC 13304 (OXA-27) assessed as inhibition of bacterial growth incubated for 16 to 20 hrs by CLSI protocol based broth microdilution method; assay type: functional; conditions: time 16-20 hrs
# [31] = test system: Acinetobacter baumannii; experiment: Antibacterial activity against carbapenem-resistant Acinetobacter baumannii clinical isolate ets104 assessed as inhibition of bacterial growth incubated for 24 hrs by CLSI protocol based broth microdilution method; assay type: functional
# [32] = test system: Pseudomonas aeruginosa; experiment: Antibacterial activity against carbapenem-resistant Pseudomonas aeruginosa clinical isolate ets84 assessed as inhibition of bacterial growth incubated for 24 hrs by CLSI protocol based broth microdilution method; assay type: functional
# [33] = test system: Acinetobacter baumannii; experiment: Antibacterial activity against carbapenem-resistant Acinetobacter baumannii clinical isolate ets123 assessed as inhibition of bacterial growth incubated for 24 hrs by CLSI protocol based broth microdilution method; assay type: functional
# [34] = test system: Acinetobacter baumannii; experiment: Antibacterial activity against carbapenem-resistant Acinetobacter baumannii clinical isolate ets171 assessed as inhibition of bacterial growth incubated for 24 hrs by CLSI protocol based broth microdilution method; assay type: functional
# [35] = test system: Pseudomonas aeruginosa; experiment: Antibacterial activity against carbapenem-resistant Pseudomonas aeruginosa clinical isolate ets85 assessed as inhibition of bacterial growth incubated for 24 hrs by CLSI protocol based broth microdilution method; assay type: functional
# [36] = test system: Pseudomonas aeruginosa; experiment: Antibacterial activity against carbapenem-resistant Pseudomonas aeruginosa clinical isolate ets33 assessed as inhibition of bacterial growth incubated for 24 hrs by CLSI protocol based broth microdilution method; assay type: functional
# [37] = test system: Escherichia coli; experiment: Antibacterial activity against carbapenem-resistant Escherichia coli clinical isolate 231016w014 assessed as inhibition of bacterial growth incubated for 24 hrs by CLSI protocol based broth microdilution method; assay type: functional
# [38] = test system: Klebsiella pneumoniae; experiment: Antibacterial activity against carbapenem-resistant Klebsiella pneumoniae clinical isolate ets40 assessed as inhibition of bacterial growth incubated for 24 hrs by CLSI protocol based broth microdilution method; assay type: functional
# [39] = test system: Klebsiella pneumoniae; experiment: Antibacterial activity against carbapenem-resistant Klebsiella pneumoniae clinical isolate ets74 assessed as inhibition of bacterial growth incubated for 24 hrs by CLSI protocol based broth microdilution method; assay type: functional
# [40] = test system: Acinetobacter baumannii; experiment: Antibacterial activity against carbapenem-sensitive Acinetobacter baumannii clinical isolate 19-1 assessed as inhibition of bacterial growth incubated for 16 to 20 hrs by CLSI protocol based broth microdilution method; assay type: functional; conditions: time 16-20 hrs
# [41] = test system: Acinetobacter baumannii; experiment: Antibacterial activity against carbapenem-resistant Acinetobacter baumannii clinical isolate ets178 assessed as inhibition of bacterial growth incubated for 24 hrs by CLSI protocol based broth microdilution method; assay type: functional
compound,measurement,setting,value
CC(C)CCCCC(=O)N[C@@H](CCN)C(=O)N[C@H](C(=O)N[C@@H](CCN)C(=O)N[C@H]1CCNC(=O)[C@H]([C@@H](C)O)NC(=O)[C@H](CCN)NC(=O)[C@H](CCN)NC(=O)[C@H](CC(C)C)NC(=O)[C@@H](Cc2ccccc2)NC(=O)[C@H](CCN)NC1=O)[C@@H](C)O.CC[C@H](C)CCCCC(=O)N[C@@H](CCN)C(=O)N[C@H](C(=O)N[C@@H](CCN)C(=O)N[C@H]1CCNC(=O)[C@H]([C@@H](C)O)NC(=O)[C@H](CCN)NC(=O)[C@H](CCN)NC(=O)[C@H](CC(C)C)NC(=O)[C@@H](Cc2ccccc2)NC(=O)[C@H](CCN)NC1=O)[C@@H](C)O (X1-[Dab]T[Dab][Dab][Dab][dF]L[Dab][Dab]T; lactam 4-C),Activity,[1],Toxic
same,MTD at 24 h,[2],5.4 mg/kg
same,IC50 at 72 h,[3],66.3 µg/mL
same,Activity,[4],Toxic
CC(C)CCCCC(=O)N[C@@H](CCN)C(=O)N[C@H](C(=O)N[C@@H](CCN)C(=O)N[C@H]1CCNC(=O)[C@H]([C@@H](C)O)NC(=O)[C@H](CCN)NC(=O)[C@H](CCN)NC(=O)[C@H](CC(C)C)NC(=O)[C@@H](Cc2ccccc2)NC(=O)[C@H](CCN)NC1=O)[C@@H](C)O ({Heptanoyl(6-Me)}-[Dab]T[Dab][Dab][Dab][dF]L[Dab][Dab]T; lactam 4-C),"fraction unbound at 6 h, 0.2 µM",[5],0.099
CC(C)CCCCC(=O)N[C@@H](CCN)C(=O)N[C@H](C(=O)N[C@H](CN)C(=O)N[C@H]1CCNC(=O)[C@H]([C@@H](C)O)NC(=O)[C@H](CCN)NC(=O)[C@H](CCN)NC(=O)[C@H]([C@@H](C)O)NC(=O)[C@@H](Cc2ccccc2)NC(=O)[C@H](CCN)NC1=O)[C@@H](C)O ({Heptanoyl(6-Me)}-[Dab]T[dDap][Dab][Dab][dF]T[Dab][Dab]T; lactam 4-C),MIC,[6],≤ 0.03 µg/mL
same,MIC,[7],< 0.06 µg/mL
same,MIC,[8],0.25 µg/mL
same,MIC,[9],2 µg/mL
same,MIC,[10],0.125 µg/mL
same,MIC,[11],1 µg/mL
same,MIC,[12],0.25 µg/mL
same,MIC,[13],0.5 µg/mL
same,MIC,[14],≤ 0.03 µg/mL
same,MIC,[15],1 µg/mL
same,MIC,[16],≤ 0.03 µg/mL
same,MIC,[17],1 µg/mL
same,MIC,[18],≤ 0.03 µg/mL
same,MIC,[19],0.5 µg/mL
same,IC50 at 72 h,[3],> 500 µg/mL
same,MIC,[20],0.5 µg/mL
same,MIC,[21],1 µg/mL
same,MIC,[22],≤ 0.03 µg/mL
same,MIC,[23],< 0.06 µg/mL
same,MIC,[24],0.5 µg/mL
same,MIC,[25],0.5 µg/mL
same,MIC,[26],0.5 µg/mL
same,MIC,[27],2 µg/mL
same,MIC,[28],0.5 µg/mL
same,MIC,[29],< 0.06 µg/mL
same,MIC,[30],≤ 0.03 µg/mL
same,MIC,[31],0.06 µg/mL
same,MIC,[32],2 µg/mL
same,MIC,[33],2 µg/mL
same,MIC,[34],0.5 µg/mL
same,MIC,[35],0.5 µg/mL
same,MIC,[36],4 µg/mL
same,MIC,[37],< 0.06 µg/mL
same,MIC,[38],0.125 µg/mL
same,MIC,[39],0.5 µg/mL
same,MIC,[40],≤ 0.03 µg/mL
same,MIC,[41],1 µg/mL
